Experiments:
Type in all cases: in vivo
[1] = tested on: Spodoptera littoralis; experiment: Spodoptera littoralis (Egyptian cotton leafworm) leaf disc spray test; conditions: foliar, 72 h, 200 ppm sprayed on cotton leaf discs, 5 L1 larvae, mortality, feeding behavior, growth regulation 3 days after treatment
Source text: Spodoptera Littoralis (Egyptian Cotton Leafworm): Cotton leaf discs were placed on agar in a 24-well microtiter plate and sprayed with test solutions at an application rate of 200 ppm. After drying, the leaf discs were infested with 5 L1 larvae. The samples were checked for mortality, feeding behavior, and growth regulation 3 days after treatment (DAT).

[2] = tested on: Heliothis virescens; experiment: Heliothis virescens (tobacco budworm) egg/artificial diet test; conditions: 96 h, 200 ppm (concentration in well 18 ppm), eggs 0-24 h old on artificial diet, egg mortality, larval mortality, growth regulation after 4 days
Experimental: Heliothis Virescens (Tobacco Budworm): Eggs (0-24 h old) were placed in 24-well microtiter plate on artificial diet and treated with test solutions at an application rate of 200 ppm (concentration in well 18 ppm) by pipetting. After an incubation period of 4 days, samples were checked for egg mortality, larval mortality, and growth regulation.

[3] = tested on: Plutella xylostella; experiment: Plutella xylostella (diamond back moth) artificial diet test; conditions: 144 h, 200 ppm (concentration in well 18 ppm), L2 larvae, larval mortality and growth regulation after 6 days
Experimental: (§1) Plutella Xylostella (Diamond Back Moth): 24-well microtiter plate (MTP) with artificial diet was treated with test solutions at an application rate of 200 ppm (concentration in well 18 ppm) by pipetting. After drying, the MTP's were infested with L2 larvae (7-12 per well). After an incubation period of 6 days, samples were checked for larval mortality and growth regulation.

[4] = tested on: Diabrotica balteata; experiment: Diabrotica balteata (corn root worm) artificial diet test; conditions: 120 h, 200 ppm (concentration in well 18 ppm), L2 larvae, larval mortality and growth regulation after 5 days
Experimental: as §1, with “Diabrotica Balteata (Corn Root Worm): A” for “Plutella Xylostella (Diamond Back Moth):”, “(6-10” for “(7-12”, “5” for “6”

[5] = tested on: Thrips tabaci; experiment: Thrips tabaci (onion thrips) leaf disc spray test; conditions: foliar, 168 h, 200 ppm sprayed on sunflower leaf discs, population of mixed ages, mortality after 7 days
Experimental: Thrips Tabaci (Onion Thrips): Sunflower leaf discs were placed on agar in a 24-well microtiter plate and sprayed with test solutions at an application rate of 200 ppm. After drying, the leaf discs were infested with an […] population of mixed ages. After an incubation period of 7 days, samples were checked for mortality.

[6] = tested on: Tetranychus urticae; experiment: Tetranychus urticae (two-spotted spider mite) leaf disc spray test; conditions: foliar, 192 h, 200 ppm sprayed on bean leaf discs, mite populations of mixed ages, egg, larval and adult mortality 8 days later
Source text: Tetranychus Urticae (Two-Spotted Spider Mite): Bean leaf discs on agar in 24-well microtiter plates were sprayed with test solutions at an application rate of 200 ppm. After drying, the leaf discs are infested with mite populations of mixed ages. 8 days later, discs are checked for egg mortality, larval mortality, and adult mortality.

Measured: pest or weed control at 200 ppm

N#Cc1ccc(C(=O)Nc2cc(C(=O)Nc3c(Br)cc(C(F)(C(F)(F)F)C(F)(F)C(F)(F)F)cc3Br)ccc2-n2cncn2)cc1 (stereo not shown) [D8, 3-(4-cyanobenzoylamino)-N-[2,6-dibromo-4-(1,2,2,3,3,3-hexafluoro-1-trifluoromethylpropyl)phenyl]-4-(1,2,4-triazol-1-yl)benzamide]
not listed: [6]
≥ 80%: all other assays above

CCc1cc(C(F)(C(F)(F)F)C(F)(F)F)cc(CC)c1NC(=O)c1ccc(-n2cncn2)c(N)c1 [B2, 3-amino-N-[2,6-diethyl-4-(1,2,2,2-tetrafluoro-1-trifluoromethylethyl)phenyl]-4-(1,2,4-triazol-1-yl)benzamide]
not listed: [5]
≥ 80%: all other assays above

Cc1cc(C(F)(C(F)(F)F)C(F)(F)F)cc(C)c1NC(=O)c1ccc(-n2cncn2)c(NC(=O)c2ccc(F)cc2)c1 [D1, 3-(4-Fluorobenzoylamino)-N-[2,6-dimethyl-4-(1,2,2,2-tetrafluoro-1-trifluoromethyl-ethyl)phenyl]-4-(1,2,4-triazol-1-yl)benzamide]
≥ 80%: [1] | [2] | [3] | [4]

CCc1cc(C(F)(C(F)(F)F)C(F)(F)C(F)(F)F)cc(C)c1NC(=O)c1ccc(-n2cncn2)c(NC(=O)c2ccc(F)cc2Cl)c1 (stereo not shown) [D4, 3-(2-Chloro-4-fluorobenzoylamino)-N-[2-ethyl-4-(1,2,2,3,3,3-hexafluoro-1-trifluoromethylpropyl)-6-methylphenyl]-4-(1,2,4-triazol-1-yl)benzamide]
≥ 80%: all assays above

CCc1cc(C(F)(C(F)(F)F)C(F)(F)C(F)(F)F)cc(C)c1NC(=O)c1ccc(-n2cncn2)c(NC(=O)c2ccc(C#N)cc2)c1 (stereo not shown) [D5, 3-(4-Cyanobenzoylamino)-N-[2-ethyl-4-(1,2,2,3,3,3-hexafluoro-1-trifluoromethyl-propyl)-6-methylphenyl]-4-(1,2,4-triazol-1-yl)benzamide]
≥ 80%: [1] | [2] | [3]

O=C(Nc1c(Br)cc(C(F)(C(F)(F)F)C(F)(F)C(F)(F)F)cc1Br)c1ccc(-n2cncn2)c([N+](=O)[O-])c1 (stereo not shown) [A4, N-[2,6-dibromo-4-(1,2,2,3,3,3-hexafluoro-1-trifluoromethylpropyl)phenyl]-3-nitro-4-(1,2,4-triazol-1-yl)benzamide]
≥ 80%: all assays above

CCc1cc(C(F)(C(F)(F)F)C(F)(F)F)cc(CC)c1NC(=O)c1ccc(-n2cncn2)c(NC(=O)c2ccc(F)cc2)c1 [D2, 3-(4-fluorobenzoylamino)-N-[2,6-diethyl-4-(1,2,2,2-tetrafluoro-1-trifluoromethylethyl)phenyl]-4-(1,2,4-triazol-1-yl)benzamide]
not listed: [6]
≥ 80%: all other assays above

CCc1cc(C(F)(C(F)(F)F)C(F)(F)C(F)(F)F)cc(C)c1NC(=O)c1ccc(-n2cncn2)c(NC(=O)c2ccc(F)cc2)c1 (stereo not shown) [D6, 3-(4-Fluorobenzoylamino)-N-[2-ethyl-4-(1,2,2,3,3,3-hexafluoro-1-trifluoromethyl-propyl)-6-methylphenyl]-4-(1,2,4-triazol-1-yl)benzamide]
≥ 80%: all assays above

Cc1cc(C(F)(C(F)(F)F)C(F)(F)F)cc(C)c1NC(=O)c1ccc(-n2cncn2)c([N+](=O)[O-])c1 [A1, N-[2,6-Dimethyl-4-(1,2,2,2-tetrafluoro-1-trifluoromethylethyl)phenyl]-3-nitro-4-(1,2,4-triazol-1-yl)benzamide]
not listed: [5]
≥ 80%: all other assays above

O=C(Nc1c(Br)cc(C(F)(C(F)(F)F)C(F)(F)C(F)(F)F)cc1Br)c1ccc(-n2cncn2)c(NC(=O)c2ccc(F)cc2Cl)c1 (stereo not shown) [D9, 3-(2-Chloro-4-fluorobenzoylamino)-N-[2,6-dibromo-4-(1,2,2,3,3,3-hexafluoro-1-trifluoromethylpropyl)phenyl]-4-(1,2,4-triazol-1-yl)benzamide]
≥ 80%: all assays above

Cc1c(C(=O)Nc2cc(C(=O)Nc3c(Br)cc(C(F)(C(F)(F)F)C(F)(F)C(F)(F)F)cc3Br)ccc2-n2cncn2)cccc1[N+](=O)[O-] (stereo not shown) [D10, 3-(2-Methyl-3-nitrobenzoylamino)-N-[2,6-dibromo-4-(1,2,2,3,3,3-hexafluoro-1-trifluoromethylpropyl)phenyl]-4-(1,2,4-triazol-1-yl)benzamide]
≥ 80%: all assays above

O=C(Nc1cc(C(=O)Nc2c(Br)cc(C(F)(C(F)(F)F)C(F)(F)C(F)(F)F)cc2Br)ccc1-n1cncn1)c1ccc(F)cc1 (stereo not shown) [D7, 3-(4-Fluorobenzoylamino)-N-[2,6-dibromo-4-(1,2,2,3,3,3-hexafluoro-1-trifluoromethylpropyl)phenyl]-4-(1,2,4-triazol-1-yl)benzamide]
not listed: [6]
≥ 80%: all other assays above

Cc1cc(C(F)(C(F)(F)F)C(F)(F)F)cc(C)c1NC(=O)c1ccc(-n2cncn2)c(N)c1 [B1, 3-Amino-N-[2,6-dimethyl-4-(1,2,2,2-tetrafluoro-1-trifluoromethylethyl)phenyl]-4-(1,2,4-triazol-1-yl)benzamide]
≥ 80%: [2] | [6]

Nc1cc(C(=O)Nc2c(Br)cc(C(F)(C(F)(F)F)C(F)(F)C(F)(F)F)cc2Br)ccc1-n1cncn1 (stereo not shown) [B4, 3-amino-N-[2,6-dibromo-4-(1,2,2,3,3,3-hexafluoro-1-trifluoromethylpropyl)-phenyl]-4-(1,2,4-triazol-1-yl)benzamide]
≥ 80%: [1] | [2] | [3] | [6]

CCc1cc(C(F)(C(F)(F)F)C(F)(F)F)cc(CC)c1NC(=O)c1ccc(-n2cncn2)c([N+](=O)[O-])c1 [A2, N-[2,6-Diethyl-4-(1,2,2,2-tetrafluoro-1-trifluoromethylethyl)phenyl]-3-nitro-4-(1,2,4-triazol-1-yl)benzamide]
≥ 80%: [1] | [4]

CCc1cc(C(F)(C(F)(F)F)C(F)(F)C(F)(F)F)cc(C)c1NC(=O)c1ccc(-n2cncn2)c(N)c1 (stereo not shown) [B3, 3-Amino-N-[2-ethyl-4-(1,2,2,3,3,3-hexafluoro-1-trifluoromethylpropyl)-6-methyl-phenyl]-4-(1,2,4-triazol-1-yl)benzamide]
not listed: [5]
≥ 80%: all other assays above

CCc1cc(C(F)(C(F)(F)F)C(F)(F)C(F)(F)F)cc(C)c1NC(=O)c1ccc(-n2cncn2)c(NC(=O)c2cccc([N+](=O)[O-])c2C)c1 (stereo not shown) [D3, 3-(2-Methyl-3-nitrobenzoylamino)-N-[2-ethyl-4-(1,2,2,3,3,3-hexafluoro-1-trifluoromethylpropyl)-6-methylphenyl]-4-(1,2,4-triazol-1-yl)benzamide]
≥ 80%: [1] | [2] | [3] | [6]

From patent US8455399B2, “N-(4-perfluoroalkyl-phenyl)-4-triazolyl-benzamides as insecticides” (Syngenta Crop Protection LLC, priority 2009, dated 2013)
